Laboratory results as given in patent US20220313656A1, “NEW CLASS OF ANTIBIOTICS HAVING LOW MIC-VALUES TOWARDS DIFFERENT STRAINS OF BACTERIA” (priority 2019, published 2022).
Where two headings read alike, the source gives them in different places.

What was measured:
Test in all cases: MIC, serial dilution method (CLSI)
[1] = system: E. faecium; type: cell-based, Enterococcus faecium
Description: (§1) These inoculums were each in diluted 1:100 in Müller Hinton (MH) broth (Sigma, Copenhagen, Denmark). From the diluted inoculums 100 μl was transferred to each well in a 96-well plate and mixed with the compound to be MIC determined. The plate was incubated for 24 hours at 37° C. (without shaking). The MIC value was determined as the lowest concentration in which no bacterial growth could be visually detected. All MIC determinations were done in duplicates. […] Since all derivatives are new, no control strains (with reference MIC values) were available.

[2] = system: S. aureus USA300; type: cell-based, Staphylococcus aureus
Description: as §1

[3] = system: S. aureus CC398; type: cell-based, Staphylococcus aureus
Description: as §1

[4] = system: E. coli APEC O2; type: cell-based, Escherichia coli
Description: as §1

[5] = system: Staphylococus pseudintermedius; type: cell-based, Staphylococcus pseudintermedius
Description: as §1

[6] = system: E. faecalis; type: cell-based, Enterococcus faecalis
Description: as §1

[7] = system: Listeria monocytogenes; type: cell-based
Description: as §1

[8] = system: Streptococcus equi; type: cell-based
Description: as §1

[9] = system: Salmonella enteritidis; type: cell-based
Description: as §1

[10] = system: Bacillus cereus; type: cell-based
Description: as §1

[11] = Enterococcus faecium, 24 h, read-out: MIC
[12] = Staphylococcus aureus, USA300, 24 h, read-out: MIC
[13] = Staphylococcus aureus, MRSA, 24 h, read-out: MIC
[14] = Escherichia coli, APECO2, 24 h, read-out: MIC
[15] = Staphylococcus pseudintermedius, 24 h, read-out: MIC
[16] = Enterococcus faecalis, 24 h, read-out: MIC
[17] = Salmonella enterica, ENTERITIDIS, 24 h, read-out: MIC
[18] = E. faecium, MH broth, 24 hours at 37° C., set to 256 if growth at […]
[19] = S. aureus USA300, MH broth, 24 hours at 37° C., set to 256 if growth at […]
[20] = S. aureus CC398 (MRSA strain), MH broth, 24 hours at 37° C., set to 256 if growth at […]
[21] = E. coli APEC O2, MH broth, 24 hours at 37° C., set to 256 if growth at […]
[22] = Staphylococus pseudintermedius, MH broth, 24 hours at 37° C., set to 256 if growth at […]
[23] = E. faecalis, MH broth, 24 hours at 37° C., set to 256 if growth at […]
[24] = MH broth, 24 hours at 37° C., set to 256 if growth at […]
[25] = Salmonella enteritidis, MH broth, 24 hours at 37° C., set to 256 if growth at […]

## CCCCC[N+](C)(C)C(C)CN1c2ccccc2Sc2ccccc21.[Br-] (stereo not shown) [Compound S17, N-(1-(10H-phenothiazin-10-yl)propan-2-yl)-N,N-dimethylpentan-1-aminium bromide]
[1]; [11]
  MIC: 16 µg/mL
[2]; [12]
  MIC: 8 µg/mL
[3]; [13]
  MIC: 32 µg/mL
[4]; [14]
  MIC: 64 µg/mL
[5]; [15]
  MIC: 4 µg/mL
[6]; [16]
  MIC: 32 µg/mL
[7]; 24 h, read-out: MIC
  MIC: 8 µg/mL
[8]; 24 h, read-out: MIC
  MIC: 4 µg/mL
[9]; [17]
  MIC: 64 µg/mL
[10]; 24 h, read-out: MIC
  MIC: 8 µg/mL

## CC[N+](C)(C)C(C)CN1c2ccccc2Sc2ccccc21.[Br-] (stereo not shown) [Compound S14, N-ethyl-N,N-dimethyl-1-(10H-phenothiazin-10-yl)propan-2-aminium bromide]
[1]; [11]
  MIC: 128 µg/mL
[2]; [12]
  MIC: 128 µg/mL
[3]; [13]
  MIC: 64 µg/mL
[4]; [14]
  MIC: 256 µg/mL
[5]; [15]
  MIC: 32 µg/mL
[6]; [16]
  MIC: 256 µg/mL
[7]; 24 h, read-out: MIC
  MIC: 32 µg/mL
[8]; 24 h, read-out: MIC
  MIC: 32 µg/mL
[9]; [17]
  MIC: 256 µg/mL
[10]; 24 h, read-out: MIC
  MIC: 256 µg/mL

## C[N+](C)(CCCN1c2ccccc2Sc2ccc(Cl)cc21)Cc1ccccc1 [Chlorpromazine Benzyl]
[1]; [18]
  MIC: 16 µg/mL
[2]; [19]
  MIC: 8 µg/mL
[3]; [20]
  MIC: 4 µg/mL
[4]; [21]
  MIC: 64 µg/mL
[5]; [22]
  MIC: 2 µg/mL
[6]; [23]
  MIC: 16 µg/mL
[7]; [24]
  MIC: 8 µg/mL
[8]; [24]
  MIC: 2 µg/mL
[9]; [25]
  MIC: 64 µg/mL
[10]; [24]
  MIC: 4 µg/mL

## COC(=O)CCCCC[N+](C)(C)C(C)CN1c2ccccc2Sc2ccccc21 (stereo not shown) [Promethazine 6-Methoxy-6-oxo-1-hexyl]
[1]; [18]
  MIC: 128 µg/mL
[2]; [19]
  MIC: 64 µg/mL
[3]; [20]
  MIC: 64 µg/mL
[4]; [21]
  MIC: 256 µg/mL
[5]; [22]
  MIC: 32 µg/mL
[6]; [23]
  MIC: 256 µg/mL
[7]; [24]
  MIC: 128 µg/mL
[8]; [24]
  MIC: 32 µg/mL
[9]; [25]
  MIC: 256 µg/mL
[10]; [24]
  MIC: 128 µg/mL

## CC(C)[N+](C)(C)C(C)CN1c2ccccc2Sc2ccccc21.[Br-] (stereo not shown) [Compound S15, N-isopropyl-N,N-dimethyl-1-(10H-phenothiazin-10-yl)propan-2-aminium bromide]
[1]; [11]
  MIC: 128 µg/mL
[2]; [12]
  MIC: 64 µg/mL
[3]; [13]
  MIC: 16 µg/mL
[4]; [14]
  MIC: 128 µg/mL
[5]; [15]
  MIC: 32 µg/mL
[6]; [16]
  MIC: 128 µg/mL
[7]; 24 h, read-out: MIC
  MIC: 128 µg/mL
[8]; 24 h, read-out: MIC
  MIC: 256 µg/mL
[9]; [17]
  MIC: 128 µg/mL
[10]; 24 h, read-out: MIC
  MIC: 128 µg/mL

## C=CC[N+](C)(C)CCCN1c2ccccc2Sc2ccc(Cl)cc21.[Br-] [Compound S40, N-(3-(2-chloro-10H-phenothiazin-10-yl)propyl)-N,N-dimethylprop-2-en-1-aminium bromide]
[1]; [11]
  MIC: 64 µg/mL
[2]; [12]
  MIC: 16 µg/mL
[3]; [13]
  MIC: 16 µg/mL
[4]; [14]
  MIC: 256 µg/mL
[5]; [15]
  MIC: 8 µg/mL
[6]; [16]
  MIC: 64 µg/mL
[7]; 24 h, read-out: MIC
  MIC: 32 µg/mL
[8]; 24 h, read-out: MIC
  MIC: 8 µg/mL
[9]; [17]
  MIC: 128 µg/mL
[10]; 24 h, read-out: MIC
  MIC: 64 µg/mL

## CCCCCCCCCCCCCC[N+](C)(C)C(C)CN1c2ccccc2Sc2ccccc21.[Br-] (stereo not shown) [Compound S44, N-(1-(10H-phenothiazin-10-yl)propan-2-yl)-N,N-dimethyltetradecan-1-aminium bromide]
[2]; [19]
  MIC: 8/16

## C=CC[N+](C)(C)C(C)CN1c2ccccc2Sc2ccccc21.[Br-] (stereo not shown) [Compound S41, N-(1-(10H-phenothiazin-10-yl)propan-2-yl)-N,N-dimethylprop-2-en-1-aminium bromide]
[1]; [11]
  MIC: 128 µg/mL
[2]; [12]
  MIC: 64 µg/mL
[3]; [13]
  MIC: 64 µg/mL
[4]; [14]
  MIC: 256 µg/mL
[5]; [15]
  MIC: 64 µg/mL
[6]; [16]
  MIC: 256 µg/mL
[7]; 24 h, read-out: MIC
  MIC: 256 µg/mL
[8]; 24 h, read-out: MIC
  MIC: 32 µg/mL
[9]; [17]
  MIC: 256 µg/mL
[10]; 24 h, read-out: MIC
  MIC: 256 µg/mL

## C=CC[N+](C)(C)CCC=C1c2ccccc2Sc2ccc(Cl)cc21 [Chlorprothixene 2-Propene-1-yl]
[1]; [18]
  MIC: 64 µg/mL
[2]; [19]
  MIC: 16 µg/mL
[3]; [20]
  MIC: 16 µg/mL
[4]; [21]
  MIC: 128 µg/mL
[5]; [22]
  MIC: 8 µg/mL
[6]; [23]
  MIC: 128 µg/mL
[7]; [24]
  MIC: 32 µg/mL
[8]; [24]
  MIC: 8 µg/mL
[9]; [25]
  MIC: 128 µg/mL
[10]; [24]
  MIC: 32 µg/mL

## C[N+](C)(C)CC/C=C1/c2ccccc2Sc2ccc(Cl)cc21.[I-] [Compound S35, (Z)-3-(2-chloro-9H-thioxanthen-9-ylidene)-N,N,N-trimethylpropan-1-aminium iodide]
[1]; [11]
  MIC: 256 µg/mL
[2]; [12]
  MIC: 256 µg/mL
[3]; [13]
  MIC: 256 µg/mL
[4]; [14]
  MIC: 256 µg/mL
[5]; [15]
  MIC: 256 µg/mL
[6]; [16]
  MIC: 256 µg/mL
[7]; 24 h, read-out: MIC
  MIC: 256 µg/mL
[8]; 24 h, read-out: MIC
  MIC: 256 µg/mL
[9]; [17]
  MIC: 256 µg/mL
[10]; 24 h, read-out: MIC
  MIC: 128 µg/mL

## CC(CN1c2ccccc2Sc2ccccc21)N(C)C.Cl (stereo not shown) [Compound S12, N,N-dimethyl-1-(10H-phenothiazin-10-yl)propan-2-amine hydrochloride, reference compound]
[1]; [11]
  MIC: 256 µg/mL
[2]; [12]
  MIC: 128 µg/mL
[3]; [13]
  MIC: 128 µg/mL
[4]; [14]
  MIC: 128 µg/mL
[5]; [15]
  MIC: 64 µg/mL
[6]; [16]
  MIC: 128 µg/mL
[7]; 24 h, read-out: MIC
  MIC: 128 µg/mL
[8]; 24 h, read-out: MIC
  MIC: 64 µg/mL
[9]; [17]
  MIC: 256 µg/mL
[10]; 24 h, read-out: MIC
  MIC: 256 µg/mL

## CC[N+](C)(C)CCCN1c2ccccc2Sc2ccc(Cl)cc21.[Br-] [Compound S3, 3-(2-chloro-10H-phenothiazin-10-yl)-N-ethyl-N,N-dimethylpropan-1-aminium bromide]
[1]; [11]
  MIC: 32 µg/mL
[2]; [12]
  MIC: 16 µg/mL
[3]; [13]
  MIC: 16 µg/mL
[4]; [14]
  MIC: 256 µg/mL
[5]; [15]
  MIC: 8 µg/mL
[6]; [16]
  MIC: 128 µg/mL
[7]; 24 h, read-out: MIC
  MIC: 32 µg/mL
[8]; 24 h, read-out: MIC
  MIC: 16 µg/mL
[9]; [17]
  MIC: 256 µg/mL
[10]; 24 h, read-out: MIC
  MIC: 32 µg/mL

## CC(CN1c2ccccc2Sc2ccccc21)[N+](C)(C)Cc1ccccc1 (stereo not shown) [Promethazine Benzyl]
[1]; [18]
  MIC: 64 µg/mL
[2]; [19]
  MIC: 16 µg/mL
[3]; [20]
  MIC: 16 µg/mL
[4]; [21]
  MIC: 128 µg/mL
[5]; [22]
  MIC: 16 µg/mL
[6]; [23]
  MIC: 128 µg/mL
[7]; [24]
  MIC: 32 µg/mL
[8]; [24]
  MIC: 16 µg/mL
[9]; [25]
  MIC: 128 µg/mL
[10]; [24]
  MIC: 32 µg/mL

## CC[N+](C)(C)CC/C=C1/c2ccccc2Sc2ccc(Cl)cc21.[Br-] [Compound S36, (Z)-3-(2-chloro-9H-thioxanthen-9-ylidene)-N-ethyl-N,N-dimethylpropan-1-aminium bromide]
[1]; [11]
  MIC: 128 µg/mL
[2]; [12]
  MIC: 32 µg/mL
[3]; [13]
  MIC: 32 µg/mL
[4]; [14]
  MIC: 256 µg/mL
[5]; [15]
  MIC: 32 µg/mL
[6]; [16]
  MIC: 128 µg/mL
[7]; 24 h, read-out: MIC
  MIC: 128 µg/mL
[8]; 24 h, read-out: MIC
  MIC: 256 µg/mL
[9]; [17]
  MIC: 256 µg/mL
[10]; 24 h, read-out: MIC
  MIC: 64 µg/mL

## CCCCCCCCCCCC[N+](C)(C)CC/C=C1/c2ccccc2Sc2ccc(Cl)cc21.[Br-] [Compound S39, (Z)—N-(3-(2-chloro-9H-thioxanthen-9-ylidene)propyl)-N,N-dimethyldodecan-1-aminium bromide]
[2]; [12]
  MIC: 4 µg/mL

## CC(C)=CCCC(C)CC[N+](C)(C)C(C)CN1c2ccccc2Sc2ccccc21.Cc1ccc(S(=O)(=O)[O-])cc1 (stereo not shown) [Compound S45, N-(1-(10H-phenothiazin-10-yl)propan-2-yl)-N,N,3,7-tetramethyloct-6-en-1-aminium 4-methylbenzenesulfonate]
[2]; [12]
  MIC: 4 µg/mL
